In general, MIC refers to the lowest concentration found to suppress growth. Higher therefore signals a need for much substance. One may read the IC50 as the concentration that inhibits the measured activity by half.

These results are taken from publication PMC8535490, “Biotransformation of Flavonoids Improves Antimicrobial and Anti-Breast Cancer Activities In Vitro” (Foods, 2021).

One data set relates to E. coli ATCC25922. Briefly: Antimicrobial activity assay (broth culture in 96-well plate, CCK8 staining, MIC/MBC). Particulars: for Growth inhibition / MBC / MIC: E. coli ATCC25922; for MBC / MIC: Escherichia coli, tested at 15–400 µM. It counts as cell-based, Escherichia coli. How it is done:
(§1) Antimicrobial biological activities of the tested compounds were evaluated as Zhong et al., with some modifications. Gram-positive and -negative bacteria and fungi (S. aureus ATCC6538, E. coli ATCC25922, and C. albicans SC5314) were selected for evaluation in the present study. S. aureus ATCC6538 and E. coli ATCC25922 were cultured with Luria-Bertani medium, while for C. albicans SC5314, potato dextrose broth medium was used for 24 h at 37 °C (bacterial suspension in 1 × 10^6 CFU/mL). […] Each strain was, respectively, transferred into a 96-well plate at 100 µL/well (90 µL bacterial suspension and 10 µL sample solution) after adding different concentrations of samples, followed by incubation for 12–16 h. The optical density at 650 nm (OD650) of C. albicans SC5314 was measured after TTC staining, while S. aureus ATCC6538 and E. coli ATCC25922 were stained for CCK8 before measurement.

The test system of the next data set is S. aureus ATCC6538. The data set is described as above. It counts as cell-based, Staphylococcus aureus. Particulars: for Growth inhibition: S. aureus ATCC 6538; for MBC / MIC: S. aureus ATCC6538, tested at 15–400 µM. The protocol: as §1
Data set [1] concerns MCF-7 human breast cancer cells. Kind of data set: Cytotoxicity, methylene blue assay. It counts as cell-based. Particulars: at a concentration corresponding to the IC50 (hesperetin 150 μM), 24 h. How it is done:
(§2) Analysis of the antiproliferative activity of the test compounds was performed according to Zhu et al., with some modifications. MCF-7 human breast cancer cells were provided by the Cell Resource Center of the Chinese Academy of Sciences (Shanghai, China). Cell proliferation and cytotoxicity of anticancer activity were assessed using the methylene blue assay. For cell proliferation and cytotoxicity, MCF-7 cells were culture in a 96-well plate at 1.5 × 10^5 cells/well and at 3 × 10^5 cells/well, respectively. Various concentrations (75–400 µM) of the test samples were added to a growth medium containing MCF-7 cells followed by cultivation for […]. Following incubation for 72 h, cell proliferation was measured with an absorbance of 570 nm using a microplate reader (Bio-Rad, Hercules, MA, USA), while cell cytotoxicity measurement was carried out 24 h after incubation.

The subject of a further data set is C. albicans SC5314. Kind of data set: Antimicrobial activity assay (broth culture in 96-well plate, TTC staining, MIC/MBC). The class given is cell-based, Candida albicans. The note with it: for MBC / MIC: tested at 15–400 µM. The protocol: as §1
Data set [2] deals with MCF-7 human breast cancer cells. Briefly: Antiproliferative activity, methylene blue assay. It counts as cell-based. The note with it: MCF-7 cells; for IC50: 72 h, mean ± SD, n = 3; for Increase in antiproliferation potency compared to unmethylated substrate: ratio of IC50 values. The protocol: as §2
Setting [3] is: Candida albicans, C. albicans SC5314.
Where [4] appears, read: Candida albicans, C. albicans SC5314, read-out: MBC.

In brackets after ≈: the same amount, converted by molar mass. Like-named read-outs stand apart in the source and are kept apart here.

Consider 7-methoxy-naringenin [Compound 2a], for which, in the data set on E. coli ATCC25922, the Growth inhibition entry is listed as “failed to inhibit the growth”. Besides, the Growth inhibition result with S. aureus ATCC6538 was “failed to inhibit the growth”. In data set [1], the “Cytotoxicity on MCF-7 cells” value is reported as “highest”. For the same compound, the “Cytotoxicity on MCF-7 cells” value in data set [1] (listed as 7-methoxynaringenin) is recorded as “Slight cytotoxicity”. In addition, the “Increase of highest antimicrobial activity compared to naringenin” value in the data set with C. albicans SC5314 (C. albicans SC5314, highest activity) was 182.12%. Further, in the data set on C. albicans SC5314 (C. albicans SC5314), the MBC is recorded as >400 >400 μM and the MIC is recorded as 75 µM. Moreover, in data set [2], the IC50 was 93.6 ± 1.06 µM and the “Increase in antiproliferation potency compared to unmethylated substrate” value (“Increase in antiproliferation potency” below) was found to be 1.34 fold.

Turning to `O=C1C[C@@H](c2ccc(O)cc2)Oc2cc(O)ccc21` [Compound 1, liquiritigenin, reference compound], the MBC in the data set on E. coli ATCC25922, with S. aureus ATCC6538 (Staphylococcus aureus) and in the data set on C. albicans SC5314 (setting [4]) was greater than 400 µM each time. The MIC against E. coli ATCC25922 amounted to 25 µM (≈ 6.41 µg/mL); in the data set on S. aureus ATCC6538 (Staphylococcus aureus), 75 µM (≈ 19.2 µg/mL); with C. albicans SC5314 (setting [3]), 25 µM (≈ 6.41 µg/mL). Besides, the “Cytotoxicity on MCF-7 cells” value in data set [1] is given as “Slight cytotoxicity”. For the same compound, the IC50 in data set [2] (Homo sapiens, MCF7) is 101 ± 1.83 µM.

For the compound `COc1ccc2c(c1)O[C@H](c1ccc(O)cc1)CC2=O` [Compound 1a, 7-methoxy-liquiritigenin], the “Increase of antimicrobial activity compared to liquiritigenin” value in the data set on E. coli ATCC25922 (E. coli ATCC25922, 400 μM) was 54.41%; in the data set on S. aureus ATCC6538 (S. aureus ATCC6538, 250 μM), 148.77%; in the data set with C. albicans SC5314 (C. albicans SC5314, 200 μM) it was 765.64%. The “Increase of inhibitory effect compared to unmethylated counterpart” value in the data set with E. coli ATCC25922 (E. coli ATCC25922, 400 μM) was determined as 0.54 fold; with S. aureus ATCC6538 (S. aureus ATCC6538, 250 μM) it was 1.49 fold; with C. albicans SC5314 (C. albicans SC5314, 200 μM), 7.65 fold. Further, the MBC in the data set on E. coli ATCC25922, in the data set on S. aureus ATCC6538 (Staphylococcus aureus) and in the data set with C. albicans SC5314 (setting [4]) was greater than 400 µM in each case. The MIC was found to be 15 µM (≈ 4.05 µg/mL) with E. coli ATCC25922; 75 µM (≈ 20.3 µg/mL) against S. aureus ATCC6538; 75 µM (≈ 20.3 µg/mL) against S. aureus ATCC6538 (Staphylococcus aureus); 25 µM (≈ 6.76 µg/mL) with C. albicans SC5314 (C. albicans SC5314); 25 µM (≈ 6.76 µg/mL) in the data set on C. albicans SC5314 (setting [3]). Further, in data set [1], the “Cytotoxicity on MCF-7 cells” value is on record as “Slight cytotoxicity”. Besides, the “Increase (MIC) compared to the unmethylated substrate” value in the data set on C. albicans SC5314 (C. albicans SC5314) is recorded as 3 fold. The compound further returned a concentration for half-maximal inhibition (IC50) in data set [2] (Homo sapiens, MCF7) of 11.2 ± 0.6 µM. Moreover, the “Increase in antiproliferation potency” value in data set [2] amounted to 8.99 fold.

For `O=C1C[C@@H](c2ccc(O)cc2)Oc2cc(O)cc(O)c21` [Compound 2, naringenin, reference compound], the Growth inhibition result in the data set with E. coli ATCC25922 and in the data set on S. aureus ATCC6538 was “failed to inhibit the growth” throughout. Also, in data set [1], the “Cytotoxicity on MCF-7 cells” value is given as “Slight cytotoxicity”. The compound further displayed an MIC with C. albicans SC5314 (setting [3]) of 75 µM (≈ 20.4 µg/mL). Moreover, the MBC with C. albicans SC5314 (setting [4]) was greater than 400 µM. The compound also gave an IC50 in data set [2] (Homo sapiens, MCF7) of 126 ± 2.76 µM.

As for `COc1ccc([C@@H]2CC(=O)c3c(O)cc(O)cc3O2)cc1O` [Compound 3, hesperetin, reference compound], the Growth inhibition entry with E. coli ATCC25922 and in the data set on S. aureus ATCC6538 was “failed to inhibit the growth” in each case. In data set [1], the “Cytotoxicity on MCF-7 cells” value is on record as “Slight cytotoxicity”. For the same compound, in the data set with C. albicans SC5314 (setting [3]), the minimal inhibitory concentration (MIC) was 75 µM (≈ 22.7 µg/mL). Besides, the MBC with C. albicans SC5314 (setting [4]) is greater than 400 µM. In data set [2] (Homo sapiens, MCF7), this compound showed a concentration for half-maximal inhibition (IC50) greater than 150 µM.

As for `COc1ccc([C@@H]2CC(=O)c3c(O)cc(O)cc3O2)cc1OC` [Compound 3a, 3’-methoxy-hesperetin], the Growth inhibition result with E. coli ATCC25922 and in the data set with S. aureus ATCC6538 was “failed to inhibit the growth” in each case. Besides, the “Cytotoxicity on MCF-7 cells” value in data set [1] was “Slight cytotoxicity”. The compound further returned an MIC against C. albicans SC5314 (setting [3]) of 50 µM (≈ 15.8 µg/mL). In addition, in the data set with C. albicans SC5314 (setting [4]), the MBC is greater than 400 µM. The same compound displayed a half-inhibitory concentration (IC50) in data set [2] (Homo sapiens, MCF7) of 10.5 ± 0.45 µM. Also, in data set [2], the “Increase in antiproliferation potency” value was “more than 14.35 fold”.

`COc1cc(O)c2c(c1)O[C@H](c1ccc(OC)c(O)c1)CC2=O` [Compound 3b, 7-methoxy-hesperetin]: the Growth inhibition entry with E. coli ATCC25922 and in the data set on S. aureus ATCC6538 was “failed to inhibit the growth” each time. For the same compound, the “Cytotoxicity on MCF-7 cells” value in data set [1] was “lowest”; in data set [1] (listed as 7-methoxyhesperetin), “No cytotoxicity”. The compound further yielded an MIC in the data set on C. albicans SC5314 (setting [3]) of 25 µM (≈ 7.91 µg/mL). In the data set with C. albicans SC5314 (setting [4]), the MBC is greater than 400 µM. In data set [2] (Homo sapiens, MCF7), this compound displayed an IC50 of 30.7 ± 0.72 µM.

As to `COc1cc(O)c2c(c1)O[C@H](c1ccc(OC)c(OC)c1)CC2=O` [Compound 3c, 7,3’-dimethoxy-hesperetin], the Growth inhibition entry in the data set with E. coli ATCC25922 and in the data set with S. aureus ATCC6538 was “failed to inhibit the growth” each time. Moreover, the “Cytotoxicity on MCF-7 cells” value in data set [1] was “Slight cytotoxicity”. Besides, it took 75 µM (≈ 24.8 µg/mL) to inhibit growth in the data set on C. albicans SC5314 (setting [3]) (MIC). Moreover, the MBC with C. albicans SC5314 (setting [4]) was greater than 400 µM. This compound also had a 50% inhibitory concentration (IC50) in data set [2] (Homo sapiens, MCF7) of 31 ± 1.44 µM.
